Entries after “also recorded” stand apart in the source; their conditions may differ.
Tests used:
[1] = system: gas-1(fc21) mitochondrial complex I disease worms; test: Worm neuromuscular activity by body bend rate analysis; format: in vivo, C. elegans; details: 100 nMol
From the text: FIGS. 5A and 5B: Worm neuromuscular activity as assayed by body bend rate analysis was reduced in gas-1(fc21) mitochondrial complex I disease ndufs2^−/− worms relative to wild-type (N2 Bristol) worms.
(§1) Neuromuscular activity, and lifespan were quantified in the C. elegans gas-1(fc21) ndufs2^−/− mutants. A semi-automated screening method (Mathew et al, 2016) was used to test drug treatment effects on an integrated C. elegans health endpoint of fecundity, brood size, and behavior.

[2] = system: gas-1(fc21) ndufs2−/− complex I disease mutant worms; test: C. elegans gas-1(fc21) lifespan analysis; format: in vivo; details: FUDR used
From the text: FIG. 2C, the Table below FIGS. 2A and 2B indicates specific values and P values calculated in Graphpad Prism v5.0 for graph shown in FIG. 2B (survival data is shown in days).
as §1
(−) Epicatechin and (+) Epicatechins act through mimicry of the endogenous mitochondrial steroid 11-β-hydroxypregnenolone (11-OHP), a potent inducer of mitochondrial biogenesis. C. elegans nematode strains studied included wild-type (N2 Bristol) and gas-1(fc21) mutants. […] FIGS. 2D, 2E and 2F are graphs show a side-by-side comparison of (+)-epicatechin, (−)-epicatechin and 11-0HP on gas-1(fc-21) worm survival.

[3] = system: human fibroblasts from a patient with FBXL4 disease; test: FBXL4 patient fibroblast mitochondrial content by FACS of Mitotracker Green; format: cell-based; details: for increase in cellular mitochondrial content compared to baseline: overnight incubation, data not shown; for improvement of mitochondrial content: 24 hours, galactose media
Description: (§2) Human fibroblasts were studied from a subject harboring a 1067del (p.Gly356Alafs*15) nonsense mutation in the maternal FBXL4 allele and a c. 1790A>C (p.GLn597Pro) missense mutation in the paternal FBXL4 allele (Gal et al, 2013). Fibroblasts were cultured in DMEM (1 g/L glucose, 0.8 g/L L-Glutamine, 110 mg/L Sodium Pyruvate). Light, fluorescence, confocal microscopy and transmission electron microscopy (TEM, Lavorato et al. 2017) methods were used to analyze proband fibroblasts and mitochondrial morphology at baseline and following metabolic stress induced by incubating cells for 48 hours in glucose/uridine-free media. Mitotracker green was used for fluorescence microscopy, Tom20 Antibody (Santa Cruz) and DAPI was used for confocal microscopy.

[4] = system: Pdss2kd/kd mice; test: Liver NAD+, NADH and NADH:NAD+ redox analysis in Pdss2kd/kd mice; format: in vivo; details: 5 μg/mL to 10 μg/mL in drinking water; 2 months
From the text: FIGS. 17A-17E: Biochemical analysis of mitochondrial amount (citrate synthase activity) and NADH:NAD+ redox balance in coenzyme Q deficient Pdss2^kd/kd mice. […] Biochemical studies are shown both by sex and all grouped together, where n=number of animals studied per group.
Untreated mice included 2M and 1F.

[5] = system: nutrient sensing signaling network (NSSN) gene expression; test: NSSN gene expression and RNAseq KEGG pathway profiling in gas-1(fc21) worms; format: in vivo, C. elegans; details: 24 hours; for MAPK signaling pathway expression (RNAseq, KEGG): relative to DMSO-only buffer
From the text: RQ, relative quantitation. […] Pathways marked with a star are also positively modulated in this same mitochondrial disease animal model by combination glucose+nicotinic acid+N-acetylcysteine triple therapy.
It is already evident that epicatechin therapy in some diseases can favorably alter the activities of central NSSN nodes, such as AMPK, that are known to regulate cell proliferation, autophagy, and mitochondrial proliferation. […] The pathways marked with a star can similarly be restored in gas-1(fc21) complex I deficient worms by combination therapy of glucose+nicotinic acid+N-acetylcysteine.

[6] = system: gas-1(fc21) ndufs2−/− mutant worms; test: In vivo terminal pharyngeal bulb fluorescence (MitoSOX, MitoTracker Green, TMRE) in gas-1(fc21) worms; parameters: species or system C. elegans
Description: In each panel, n conveys the number of animals studied per conditions. Bars and error bars convey mean and standard error, respectively.
Mitochondrial oxidant burden (MitoSOX Red), membrane potential (tetramethylrhodamine ethyl ester, TMRE), and mitochondrial content (MitoTracker Green FM, MTG) were performed in C. elegans at 20° C. using in vivo terminal pharyngeal bulb relative fluorescence microscopic quantitation. […] Worms were then paralyzed in situ with 5 mg/ml levamisole. Photographs were taken in a darkened room at 160× magnification with a Cool Snap cf2 camera (Nikon, Melville, N.Y.). A CY3 fluorescence cube set (MZFLIII, Leica, Bannockburn, Ill.) was used for MitoSOX and TMRE. A GFP2 filter set (Leica) was used for MitoTracker Green FM. Respective exposure times were 2 s, 320 ms, and 300 ms for each of MitoSOX, TMRE, and MitoTracker Green FM. The resulting images were background subtracted, and the nematode terminal pharyngeal bulb was manually circled to obtain mean intensity of the region by using Fiji Is Just ImageJ. Fluorescence data for each strain were normalized to its same day control to account for day-to-day variation. A minimum of 3 independent experiments of approximately 50 animals per replicate were studied per strain per dye. The significance of the difference in the mean fluorescence intensity between strains under different experimental conditions was assessed by mixed-effect ANOVA, which analyzes potential batch effect due to samples being experimentally prepared, processed, and analyzed on different days by including a batch random effect in the model. A statistical significance threshold was set at P<0.05. All statistical analyses were performed in SAS 9.3.
FIGS. 4A-4E show in vivo quantification of relative mitochondrial oxidant burden, mitochondrial content, and mitochondrial membrane potential in gas-1(fc21) complex I disease worms.

[7] = system: Pdss2kd/kd homozygous missense mutant mice; test: Liver mitochondrial content (VDAC western blot, citrate synthase activity) in Pdss2kd/kd mice; format: in vivo; details: 5 μg/mL or 10 μg/mL in drinking water; both sexes
[8] = system: cell or animal models of primary RC dysfunction; test: Overall observations across cell and animal models of primary RC dysfunction
[9] = system: Human podocytes (renal glomerular cells); test: Human podocyte viability / cell death under rotenone complex I inhibition; details: for cell death caused by rotenone (45% cell death): 12.5 nM rotenone
[10] = system: ndufs2−/− zebrafish; test: ndufs2−/− zebrafish dark-induced swimming activity with low-dose rotenone (Zebrabox); format: in vivo, Danio rerio
[11] = system: FBXL4-human disease patient fibroblasts; test: FBXL4 patient fibroblast cell death in galactose; format: cell-based; details: 20 nM; 72 hours in galactose
Description: as §2

[12] = system: AB (wild-type) zebrafish; test: AB wild-type zebrafish swimming activity with high-dose rotenone; format: in vivo, Danio rerio
From the text: Each symbol indicates one fish. **, p<0.01. ***, p<0.001.
EP07, 11-hydroxyprogesterone. **, p<0.01. Each symbol conveys activity of one well with n=8 animals/well in a 96-well plate, as quantified in dark-cycle analysis in the Zebrabox (Viewpoint).
Swimming activity (Zebrabox) was quantified in first five-minute periods of three consecutive dark cycles across 3 biological replicate experiments. Activity score was normalized to percent of wild-type concurrent controls. […] AB (wild-type) zebrafish had reduced swimming activity with high dose (70 nM) rotenone exposure for 4 hours on 7 dpf.
The indicated agents were added at 5 and 6 dpf, twice a day. 70 nM rotenone was added on 7 dpf. 4 hours later the larvae were transferred into a 96 well plate (1fish per well, 8 wells per condition), 96-well plates were immediately placed into NOLDUS to evaluate swim activity in repeating light-dark exposure. Swim activity effects were averaged in first 5 minutes of each light-off (‘dark’) period across all light on/off cycles.

[13] = 10 nMol, 72 hours, redosing every 24 hours

Structure (SMILES): Oc1cc(O)c2c(c1)O[C@H](c1ccc(O)c(O)c1)[C@H](O)C2 [(−) epicatechin]
- impaired neuromuscular function (body bend rate) toward wild-type [1]: significantly rescued
- lifespan rescue compared to buffer-only treated gas-1(fc21) worms ([2]; 10 nMol): Significant lifespan rescue
- lifespan rescue compared to buffer-only treated gas-1(fc21) worms ([2]; 100 nMol): Significant lifespan rescue

Structure (SMILES): Oc1cc(O)c2c(c1)O[C@@H](c1ccc(O)c(O)c1)[C@@H](O)C2 [(+) epicatechin]
- increase in cellular mitochondrial content compared to baseline ([3]; 1 nM): 14%
- increase in cellular mitochondrial content compared to baseline ([3]; 10 nM): 21%
- mitochondrial content ([3]; 1 nMol to 20 nMol range): significantly increased
- improvement of mitochondrial content ([3]; 1 nMol): 70%
- improvement of mitochondrial content ([3]; 10 nMol): 70%
- NAD+ deficiency / NADH:NAD+ redox imbalance in liver [4]: did not correct
- Daf-16 (FOXO) expression, downregulated in gas-1(fc21) ([5]; 10 nM): substantially upregulated
- Par-4 (LKB1) expression, downregulated in gas-1(fc21) ([5]; 10 nM): increased
- SOD2 (mnSOD) expression, upregulated in gas-1(fc21) ([5]; 10 nM, relative to wild-type levels): normalized
- MAPK signaling pathway expression (RNAseq, KEGG) [5]: uniquely and substantially modulated
- improvement of mitochondrial membrane potential towards wild type levels ([6]; 10 nM, 24 hours): 62%
- improvement in mitochondrial content (MitoTracker Green) ([6]; 10 nM, 24 hours, most improved concentration): 39%
- mitochondrial content ([6]; 1 nMol, 24 hours): significantly rescued
- mitochondrial oxidant burden ([6]; 1 nMol, 24 hours): significantly rescued
- mitochondrial content ([6]; 10 nMol, 24 hours): significantly rescued
- mitochondrial membrane potential ([6]; 10 nMol, 24 hours): significantly recued
- mitochondrial oxidant burden ([6]; 10 nMol, 24 hours): significantly rescued
- mitochondrial content [6, 13]: significant rescue; also recorded: significantly rescued
- mitochondrial oxidant burden [6, 13]: complete reversal; also recorded: significantly rescued
- mitochondrial content ([6]; 100 nMol, 24 hours): significantly rescued
- mitochondrial oxidant burden ([6]; 100 nMol, 24 hours): significantly rescued
- mitochondrial oxidant burden (MitoSox) ([6]; all concentrations of 3-log order dose range, 24 hours): complete normalization
- citrate synthase activity in liver [7]: substantially increased
- effectiveness of low (nanomolar range) versus higher (micromolar range) concentrations ([8]; C. elegans and human cell studies): more effective than higher
- adverse effects ([8]; cell or animal models of primary RC dysfunction): No adverse effects
- cell death caused by rotenone (45% cell death) ([9]; 1 nM): not
- cell death caused by rotenone (45% cell death) ([9]; 10 nM): improved
- podocyte viability upon RC inhibition ([9]; 10 nM, galactose media, 25 nM rotenone, 48 hours): significantly improved
- podocyte viability upon RC inhibition ([9]; 10 nM, glucose media, 35 nM rotenone, 48 hours): significantly improved
- cell death caused by rotenone (45% cell death) ([9]; 100 nM): improved
- improvement in cell viability ([9]; 10 to 100 nanomolar, rotenone treated human cells): approximately 50%
- effectiveness on podocyte viability compared with the other enantiomer ([9]; rotenone, 48 hours): more effective than (−) epicatechin
- impaired neuromuscular function (body bend rate) toward wild-type [1]: rescues; also recorded: significantly rescued
- swimming activity ([10]; 100 nM, low-dose (12 nM) rotenone): significantly improved
- increase in swimming activity toward wild-type controls ([10]; 100 nMol pre-treatment from 5 dpf, 12 nMol rotenone at 7 dpf): ~25%
- increased cell death in galactose [11]: significantly rescued
- lifespan rescue compared to buffer-only treated gas-1(fc21) worms ([2]; 1 nMol): Significant lifespan rescue
- median survival ([2]; 1 nMol, buffer-only gas-1(fc21) 19 days): 23 days
- lifespan rescue compared to buffer-only treated gas-1(fc21) worms ([2]; 10 nMol): Significant lifespan rescue
- maximum survival ([2]; 10 nMol, buffer-only gas-1(fc21) 27 days): 31 days

Structure (SMILES): CC(=O)[C@H]1CC[C@H]2[C@@H]3CC=C4C[C@@H](O)CC[C@]4(C)[C@H]3[C@@H](O)C[C@]12C [11-β-hydroxypregnenolone]
- MAPK signaling pathway expression (RNAseq, KEGG) [5]: uniquely and substantially modulated
- impaired neuromuscular function (body bend rate) toward wild-type [1]: protective; also recorded: significantly rescued
- lifespan rescue compared to buffer-only treated gas-1(fc21) worms ([2]; 1 nMol): Significant lifespan rescue
- lifespan rescue compared to buffer-only treated gas-1(fc21) worms ([2]; 10 nMol): Significant lifespan rescue
- increase in swimming activity toward AB controls ([12]; 2 nM pre-treatment from 5 dpf, high-dose (70 nM) rotenone 4 hours at 7 dpf): ~25%
- swimming activity ([12]; 6 nM, high-dose (70 nM) rotenone): significantly improved

Source: patent US20250017895A1, “FLAVANOID CONTAINING COMPOSITIONS AND METHODS OF USE THEREOF FOR THE TREATMENT OF MITOCHONDRIAL DISORDERS” (priority 2021, published 2025)
